No end group written: not given here.
Key:
U87 human glioblastoma = conditions: U87 cells (brain cancer), 24 h, MTT; MPT-63 at 1, 5 and 10 μM
MDA-MB-231 breast cancer = conditions: MDA-MB-231 cells (breast cancer), 24 h, MTT; MPT-63 at 1, 5 and 10 μM
[1] = tested on: UM-UC-3 bladder cancer cell line; test: MTT cytotoxicity assay, UM-UC-3 bladder carcinoma cell line; type: cell-based, human; conditions: UM-UC-3 cells, 1.0 and 10 μM, 24 h
Excerpt: ATCC: UM-UC-3: Human cell line with epithelial-like characteristics established from a high grade invasive urinary bladder carcinoma of a patient. This is a hypertriploid human cell line and IFN non responsive. This cell line is tumorigenic in nature.

HepG2 liver cancer = conditions: HepG2 cells (liver cancer), 24 h, MTT; MPT-63 at 1, 5 and 10 μM
[2] = tested on: CaSki cervix cancer cell line; conditions: CaSki cells, compared with MB30, MTT
Method: (§1) The viability of the cells was estimated by using MTT assay on the basis of formazan formed, which was detected spectrophotometrically by optical density at 570 nm at 24 h, 48 h and 72 h [Bar-mean±S.E.].
All cell lines were grown under standard conditions in humidified 37° C. incubator in 5% CO2 as described earlier (Garg et al., 2009; Kanojia et al., 2010).
(§2) MTT [3-(4, 5-dimethylthiazol-2-yl)-2,5-diphenyl tetrazolium bromide] assay was carried out for measurement of the cytotoxicity of different anticancer peptides. The water soluble tetrazolium salt, MTT [3-(4,5-dimethylthiazol-2-yl)-2,5-diphenyl tetrazolium bromide] is metabolized to the water insoluble formazan by intact mitochondrial dehydrogenases. The formazan is then solubilized by adding 2-propanol+40 mM HCl for 4 h incubation. […] The viability of the cells was estimated on the basis of formazan formed, which was detected spectrophotometrically by optical density at 570 nm at 24 h, 48 h and 72 h. At every time point such as 24 h, 48 h and 72 h, 1×10^4 cells were seeded without the peptide in triplicate in each plate for a given treatment of peptide. This was used as control cytotoxicity levels to calculate the percent cell cytotoxicity of every peptide treatment. […] All the experiments were carried out in triplicates and repeated three times.

[3] = tested on: SiHa cervix cancer cell line; conditions: SiHa cells, compared with MB30, MTT
Method: as §1, §2

[4] = tested on: HCT 116 colorectal cancer cell line; type: cell-based, human; conditions: HCT 116 cells, compared with MB30, MTT
Excerpt: ATCC HCT 116: Human cell line with epithelial-like characteristics established from colorectal carcinoma from an adult patient. The cells are positive for keratin by immunoperoxidase staining. HCT 116 cells are positive for transforming growth factor beta 1 (TGF beta 1) and beta 2 (TGF beta 2) expression. This line has a mutation in codon 13 of the ras protooncogene, and can be used as a positive control for PCR assays of mutation in this codon.

## GQVWEATATVNAIRGSVTPAVSQFNARTAD [MB30]
U87 human glioblastoma
  cytotoxicity (in words): better cytotoxicity in comparison to the full length protein MPT-63
MDA-MB-231 breast cancer
  cytotoxicity (in words): better cytotoxicity in comparison to the full length protein MPT-63
[1]
  cytotoxicity levels (in words): higher cytotoxicity levels than the other peptide
HepG2 liver cancer
  cytotoxicity (in words): better cytotoxicity in comparison to the full length protein MPT-63

## NHFTLKCPKTALTEPPTLAY [TG20]
[2]
  cytotoxicity (in words): less cytotoxicity
[3]
  cytotoxicity (in words): less cytotoxicity
[4]
  cytotoxicity (in words): less cytotoxicity

## TAGIKLTVPIEKFPVTTQTFVVG [TG23]
[1]
  cytotoxicity levels (in words): higher cytotoxicity levels than the other peptide
[2]
  cytotoxicity (in words): less cytotoxicity
[3]
  cytotoxicity (in words): less cytotoxicity
[4]
  cytotoxicity (in words): less cytotoxicity

B1: MPT-63 (protein, listed as Mycobacterium bovis)
chain: MKLTTMIKTAVAVVAMAAIATFAEPVALAAYPITGKLGSELTMTDTVGQVVLGWKVSDLKSSTAVIPGYPVAGQVWEATATVNAIRGSVTPAVSQFNARTADGINYRVLWQAAGPDTISGATIPQGEQSTGKIYFDVTGPSPTIVAMNNGMQDLLIWEP
U87 human glioblastoma
  cytotoxicity (in words): shown cytotoxicity
MDA-MB-231 breast cancer
  cytotoxicity (in words): shown cytotoxicity
HepG2 liver cancer
  cytotoxicity (in words): shown cytotoxicity

From patent US9624277B2, “Anticancer agent” (AMRITA THERAPEUTICS LIMITED, priority 2010, dated 2017)
